This note sets out measurements from patent US20210169958A1, “Preparation Method of Agrocybe Aegerita Extract and its use in Preparing Medicine for Lowering Uric Acid” (Guangdong Institute of Microbiology (Guang Dong Detection …, priority 2018, published 2021).

Data set [1] has as its system OAT1 (organic anion transporter 1). In words: Western blot of kidney samples, OAT1 protein expression. As to conditions: compared with the model group, each dose group. The data set is classed as in vivo, mouse. The procedure: Except for the normal control group by intraperitoneal injection and intragastric administration of distilled water, the other groups were intraperitoneally injected with oxazine potassium salt at a dose of 100 mg/kg/d, and simultaneously intragastrically with a dose of 600 mg/kg/d hypoxanthine for modeling. […] Low, middle, and high-dose Agrocybe aegerita water extract administration group (Agrocybe aegerita water extract, AAW) were respectively 50, 100, 200 mg/kg concentration of the Agrocybe aegerita water extract prepared in Example 2 100 mg/kg/d for intragastric administration. The normal control group and the hyperuricemia model control group were gavage with the same volume of pure water for 7 consecutive days, and in the 1, 3, 5, and 7 days to weigh the mice. […]
(7) Western blot analysis of kidney samples. Using GAPDH (glyceraldehyde-3-phosphate dehydrogenase) as an internal control, the expression of proteins including URAT1 (urate transporter 1) and OAT1 (organic anion transporter 1) were detected.
(§1) (8) Statistical analysis is performed using the professional data processing program SPSS (Release 11.5, SPSS Inc., 2001). All data are expressed as mean±standard error (S.D.) and analyzed by one-way analysis of variance (ANOVA), and group means were compared by two-tailed Student's t test. […]

In data set [2] the test system is hyperuricemia mice. Briefly: Urine uric acid level in hyperuricemia mice. The data set is classed as in vivo, Kunming mice. As to conditions: normal 605, model 293 μmol/L. On the procedure: (§2) Except for the normal control group by intraperitoneal injection and intragastric administration of distilled water, the other groups were intraperitoneally injected with oxazine potassium salt at a dose of 100 mg/kg/d, and simultaneously intragastrically with a dose of 600 mg/kg/d hypoxanthine for modeling. […] Low, middle, and high-dose Agrocybe aegerita water extract administration group (Agrocybe aegerita water extract, AAW) were respectively 50, 100, 200 mg/kg concentration of the Agrocybe aegerita water extract prepared in Example 2 100 mg/kg/d for intragastric administration. […] The blood samples were separated and the serum was stored at −20° C. The organs of the mice were removed, including the liver, spleen, and kidneys, and washed with physiological saline solution. Then blot it dry with an ordinary filter and weigh it. […] (8) Statistical analysis is performed using the professional data processing program SPSS (Release 11.5, SPSS Inc., 2001). All data are expressed as mean±standard error (S.D.) and analyzed by one-way analysis of variance (ANOVA), and group means were compared by two-tailed Student's t test. Differences with statistical significance (P<0.05 or P<0.01) are indicated by the following symbols: There is a differences from the normal control group: *P<0.05, **P<0.01. […]

Data set [3] relates to hyperuricemia mice. In words: Serum uric acid level in potassium oxonate + hypoxanthine hyperuricemia mice. The data set is classed as in vivo, Kunming mice. Particulars: 7 days, normal 196, model 313 μmol/L. The procedure:
as §2

For data set [4], the system named is hyperuricemia mice. Briefly: Kidney (renal) coefficient and kidney observation of mice. The data set is classed as in vivo, Kunming mice. On the procedure: (§3) Except for the normal control group by intraperitoneal injection and intragastric administration of distilled water, the other groups were intraperitoneally injected with oxazine potassium salt at a dose of 100 mg/kg/d, and simultaneously intragastrically with a dose of 600 mg/kg/d hypoxanthine for modeling. […] Low, middle, and high-dose Agrocybe aegerita water extract administration group (Agrocybe aegerita water extract, AAW) were respectively 50, 100, 200 mg/kg concentration of the Agrocybe aegerita water extract prepared in Example 2 100 mg/kg/d for intragastric administration. […] The blood samples were separated and the serum was stored at −20° C. The organs of the mice were removed, including the liver, spleen, and kidneys, and washed with physiological saline solution. Then blot it dry with an ordinary filter and weigh it. […] The supernatant was retained for XOD activity analysis and Western blot analysis. (8) Statistical analysis is performed using the professional data processing program SPSS (Release 11.5, SPSS Inc., 2001). All data are expressed as mean±standard error (S.D.) and analyzed by one-way analysis of variance (ANOVA), and group means were compared by two-tailed Student's t test. Differences with statistical significance (P<0.05 or P<0.01) are indicated by the following symbols: There is a differences from the normal control group: *P<0.05, **P<0.01. […]

In data set [5] the test system is URAT1. Briefly: URAT1 expression in mouse kidney by ELISA kit. The format is in vivo. Particulars: allopurinol group; normal 96.95, model 104.85 pg/mL. The procedure:
Except for the normal control group by intraperitoneal injection and intragastric administration of distilled water, the other groups were intraperitoneally injected with oxazine potassium salt at a dose of 100 mg/kg/d, and simultaneously intragastrically with a dose of 600 mg/kg/d hypoxanthine for modeling. […] Low, middle, and high-dose Agrocybe aegerita water extract administration group (Agrocybe aegerita water extract, AAW) were respectively 50, 100, 200 mg/kg concentration of the Agrocybe aegerita water extract prepared in Example 2 100 mg/kg/d for intragastric administration. The normal control group and the hyperuricemia model control group were gavage with the same volume of pure water for 7 consecutive days, and in the 1, 3, 5, and 7 days to weigh the mice.
(4) Take the organs obtained in step (2) and calculate the organ coefficients (liver coefficient, spleen coefficient and kidney coefficient) by dividing […]. […]
as §1
On the technique in general: ELISA stands for enzyme-linked immunosorbent assay.

Data set [6] relates to hyperuricemia mice. In words: Liver coefficient of mice. The data set is classed as in vivo, Kunming mice. Particulars: all treatment groups. On the procedure:
as §3

In data set [7] the test system is hyperuricemia mice. In words: Serum urea nitrogen (BUN) level, renal function of hyperuricemia mice. Particulars: allopurinol group; normal 4.47, model 5.96 mmol/L. The format is in vivo, Kunming mice. On the procedure:
as §2

A short description of data set [8]: Body weight change of mice. The format is in vivo, Kunming mice. As to conditions: compared with normal group, 7 days, all doses. On the procedure:
Except for the normal control group by intraperitoneal injection and intragastric administration of distilled water, the other groups were intraperitoneally injected with oxazine potassium salt at a dose of 100 mg/kg/d, and simultaneously intragastrically with a dose of 600 mg/kg/d hypoxanthine for modeling. […] Low, middle, and high-dose Agrocybe aegerita water extract administration group (Agrocybe aegerita water extract, AAW) were respectively 50, 100, 200 mg/kg concentration of the Agrocybe aegerita water extract prepared in Example 2 100 mg/kg/d for intragastric administration. […] (8) Statistical analysis is performed using the professional data processing program SPSS (Release 11.5, SPSS Inc., 2001). All data are expressed as mean±standard error (S.D.) and analyzed by one-way analysis of variance (ANOVA), and group means were compared by two-tailed Student's t test. Differences with statistical significance (P<0.05 or P<0.01) are indicated by the following symbols: There is a differences from the normal control group: *P<0.05, **P<0.01. There is a difference between the control and PO and HX-induced hyperuricemia model group, #P<0.05, ##P<0.01.

In the case of `CCc1oc2ccccc2c1C(=O)c1cc(Br)c(O)c(Br)c1` [benzbromarone], in data set [1], the “OAT1 protein expression (Western blot, gray analysis)” value was “increase the expression of OAT1”. The “urine uric acid level” value in data set [2] (7.8 mg/kg) was 408 µmol/L. The “blood uric acid of hyperuricemia mice” value in data set [3] (7.8 mg/kg intragastric) came to 206 µmol.
In data set [4] (allopurinol group, normal 1.25%), `Oc1ncnc2[nH]ncc12` [allopurinol] showed a renal coefficient of 1.42%. In data set [4] (not observed in other groups), the kidney observation entry is “vesicular nephritis was observed”. The “URAT1 protein expression level (ELISA, kidney)” value in data set [5] was 151.96 pg/mL. The “urine uric acid level” value in data set [2] (allopurinol group (5 mg/kg per method)) was determined as 267 µmol/L. Moreover, the “liver coefficient, effect on liver function” value in data set [6] is reported as “little effect on liver function”. Besides, the “serum BUN” value in data set [7] is recorded as 4.74 mmol/L. Also, the “blood uric acid of hyperuricemia mice” value in data set [3] (5 mg/kg intragastric) is 105 µmol. Besides, the “effect on body weight” value in data set [8] is on record as “inhibited the weight increase of mice”.
